± gives the expanded uncertainty stated by the source.
Settings: 313.15 K; Liquid; Closed cell (Static) method

| Structure (SMILES) | vapor or sublimation pressure |
| --- | --- |
| CC(C)CC(C)(C)C [2,2,4-trimethylpentane] | 12.95 ± 0.031 kPa |
| CCCCO [butan-1-ol] | 2.483 ± 0.015 kPa |
| C=CCCCC [hex-1-ene] | 44.98 ± 0.2 kPa |

Source: the NIST ThermoML archive (doi:10.1016/j.jct.2013.04.003)
